{
  "source": "patent US20220380385A1",
  "about": "“PYRIMIDINE FIVE-MEMBERED NITROGEN HETEROCYCLIC DERIVATIVE, PREPARATION METHOD THEREOF AND PHARMACEUTICAL USE THEREOF” (TUOJIE BIOTECH(SHANGHAI) CO., LTD., priority 2019, published 2022)",
  "assay": "In vitro metabolic stability in rat liver microsomes",
  "assay_type": "in vitro ADME",
  "details": "rat liver microsomes (male Wistar Han), NADPH, 37° C.; read-out: Intrinsic clearance rate",
  "procedure": "The concentration of the compound in the reaction system was determined by LC/MS/MS, so as to calculate the intrinsic clearance rate of the test compound and to evaluate the in vitro metabolic stability in rat liver microsomes.\n222.5 μL, 1.1236 mg/mL of a mixed solution of rat liver microsomes (male Wistar Han strain, purchased from Corning, catalog number 452511) and 25 μL, 10 mM of NADPH were added into the incubation plate. The mixture was mixed by vortexing for 10 seconds. The plate was incubated in a water bath at 37° C. for 8 minutes. 2.5 μL, 100 μM of the test compound or positive control was added to the incubation plate to start the reaction. The mixture was mixed by vortexing for 12 seconds, and incubated in a water bath at 37° C. The reaction was stopped by transferring 20 μL of the incubation system to a stop plate containing 100 μL of cold stop solution at 0.5, 5, 10, 15, 20 and 30 minutes. The mixture was mixed by vortexing for 2 minutes. The stop plate was centrifuged at 4000 rpm for 20 minutes, then left to stand at 4° C. for 30 minutes, and then centrifuged at 4000 rpm for 20 minutes. 40 μL of the supernatant of each compound was transferred to a 96-well injection plate, and 160 μL of pure water was added to dilute the samples.\nThe obtained samples were quantified by ion chromatogram, and the residual rate was calculated according to the peak area of the test compounds or positive control. The slope k was determined by linear regression of the natural logarithm of the residual rate to the incubation time by using Microsoft Excel.\nThe in vitro half-life (in vitro t1/2) was calculated from the slope: in vitro t1/2=−(0.693/k)\nThe following equation was used to convert in vitro half-life into intrinsic clearance rate (in vitro CLint, μL/min/mg protein):\nin vitro CLint=(0.693/t1/2)×(incubation volume (L)/protein amount (mg))",
  "data": [
    {"smiles": "[2H]C([2H])([2H])Nc1nccc(Sc2c(C)nc(N3CCC4(CC3)Cc3ncccc3[C@H]4N)n3ccnc23)c1Cl", "note": "[Example 3, (S)-1′-(8-((3-Chloro-2-((methyl-d3)amino)pyridin-4-yl)thio)-7-methylimidazo[1,2-c]pyrimidin-5-yl)-5,7-dihydrospiro[cyclopenta[b]pyridine-6,4′-piperidin]-5-amine]", "values": [
      {"measurement": "microsomal CLint at 1 µM", "value": "< 3", "unit": "µL/min/mg"}
    ]}
  ]
}
